The values that follow come from patent US20090305993A1, “METHODS AND COMPOSITION FOR THE TREATMENT OF GASTROINTESTINAL DISORDERS” (IRONWOOD PHARMACEUTICALS, INC., priority 2006, published 2009).

Where a SMILES comes first, the peptide text is derived from it. Bridges are numbered along the chain shown (N, C = ends). Where no end group is shown, it is not given here.

A short description of data set [1]: oral bioavailability in rats, LCMS. The class given is in vivo, rat. To be noted: plasma. The method, then:
Similarly, oral bioavailability was determined in rats using LCMS methodology. Rat plasma samples containing SEQ ID NO:3 and/or SEQ ID NO:6 were extracted using a Waters Oasis MAX 96 well solid phase extraction (SPE) plate. A 200 μL volume of rat plasma was mixed with 200 μL of ^13C9, ^15N—SEQ ID NO:3 in the well of a prepared SPE plate. The samples were drawn through the stationary phase with 15 mm Hg vacuum. All samples were rinsed with 200 μL of 2% ammonium hydroxide in water followed by 200 μL of 20% methanol in water. The samples were eluted with consecutive 100 μL volumes of […] formic acid/water/methanol and 100 μL 5/15/80 formic acid/water/methanol. The samples were dried under nitrogen and resuspended in 100 μL of 20% methanol in water. Samples were analyzed by a Waters Quattro Micro mass spectrometer coupled to a Waters 1525 binary pump with a Waters 2777 autosampler. A 40 μL volume of each sample was injected onto a Thermo Hypersil GOLD C18 column (2.1×50 mm, 5 um). SEQ ID NO:3 and SEQ ID NO:6 were eluted by a gradient over 3 minutes with acetonitrile and water containing 0.05% trifluoroacetic acid. The Quattro Micro mass spectrometer was run in multiple reaction monitoring (MRM) mode using the mass transitions of 764>182 and 682>136 for SEQ ID NO:3 and SEQ ID NO:6 respectively. Using this methodology, SEQ ID NO:3 was dosed orally and by IV to rats at 10 mg/kg. […] In this experiment, the limit of detection (LOD) for SEQ ID NO:6 was 0.78 nM. SEQ ID NO:6 was detected at all time points for the intravenous dose and was not detected beyond 240 min for the oral dose. For non-detected values, the LOD was used as an upper estimate of the concentration of SEQ ID NO:6. The calculated value for AUCp.o., (0-6h) was <1308 nM-min and AUCi.v.,(0-6h) was 1,590,000 nM-min. The 6 h bioavailability of SEQ ID NO:6 determined by circulating plasma levels was 0.08%

The target in the next data set is T1, carboxypeptidase A (Homo sapiens, UniProt P15085).
T1 sequence (P15085 111-419): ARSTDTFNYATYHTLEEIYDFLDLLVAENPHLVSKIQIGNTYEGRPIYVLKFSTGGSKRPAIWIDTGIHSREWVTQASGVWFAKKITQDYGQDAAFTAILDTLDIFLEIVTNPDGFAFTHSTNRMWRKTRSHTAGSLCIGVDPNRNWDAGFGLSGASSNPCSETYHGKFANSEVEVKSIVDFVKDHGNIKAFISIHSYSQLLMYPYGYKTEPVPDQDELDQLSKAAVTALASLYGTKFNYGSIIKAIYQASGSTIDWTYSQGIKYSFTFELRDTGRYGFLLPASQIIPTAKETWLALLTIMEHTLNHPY
Description: in vitro proteolytic stability, carboxypeptidase A. As to the method:
The stability of SEQ ID NO:3 in the presence of several mammalian digestive enzymes was determined. SEQ ID NO:3 was exposed to a variety of in vitro conditions including digestive enzymes and low ph environments designed to simulate gastric fluid. SEQ ID NO:3 was incubated with chymotrypsin, trypsin, pepsin, aminopeptidase, carboxypeptidase A, and simulated gastric fluid (sgf) at ph 1.0. Samples were collected at 0, 3, and 24 h for all conditions except pepsin digestion and the SGF. For the latter two conditions, samples were obtained at 0, 1, and 3 h. Negative control samples were prepared for initial and final time points. A separate, positive activity control was run in parallel to SEQ ID NO:3. All samples were analyzed by LC/MS
Five (5) μL of a 40 μg/mL carboxypeptidase inhibitor (carboxypeptidase inhibitor from potato tuber (Sigma-Aldrich, C0279) stock was added to each control sample (0 and 24 h), for a final concentration of 0.4 μg/mL. All control and test (0, 3 and 24 h) samples were incubated at 37° C. for 5 min. Twenty (20) μL of a 0.01 mg/mL carboxypeptidase A (Carboxypeptidase A from human pancreas; Sigma-Aldrich, C5358) stock was added to each sample. The samples were returned to the 37° C. water bath. The reaction was quenched with 5 μL of a 40 μg/mL carboxypeptidase inhibitor at the proper time point. No extra carboxypeptidase inhibitor was added to the control samples since there was already inhibitor present. Samples were subsequently flash frozen in liquid nitrogen, and stored at −80° C. until analysis. Upon analysis, samples were thawed and transferred to a 1 mL 96-well deep microtiter plate. […] These standards were used to generate a standard curve for quantification of samples. When necessary, the standard curves were also used to calculate the concentration of the corresponding digestion product. Ten (10) μL injections were made of each sample and standard.
To further study the SEQ ID NO:3 carboxypeptidase A digestion product, samples of 0.01 mg/mL SEQ ID NO:3 were prepared in the carboxypeptidase A reaction buffer at a total volume of 500 μL in 2 mL eppendorf tubes. Triplicate samples were prepared for the following time points: 0, 15, 30, 60, 120, 180 and 240 min. The samples were incubated at 37° C. for 5 min. Twenty (20) μL of a 0.01 mg/mL carboxypeptidase A stock were added to each sample and returned to the 37° C. water bath. The reactions were quenched with 5 μL of a 40 μg/mL carboxypeptidase inhibitor at the proper time points. Samples were subsequently flash frozen in liquid nitrogen, and stored at −80° C. until analysis. Upon analysis, samples were thawed and transferred to a 1 mL 96-well plate. Standards of SEQ ID NO:3 were prepared in carboxypeptidase A reaction buffer at 0.625, 1.25, 2.50, 5.00, and 10.00 μg/mL concentrations. These standards were used to generate a standard curve for quantification of samples. When necessary, the standard curves were also used to calculate the concentration of the corresponding digestion product. Ten (10) μL injections were made of each sample and standard. If the formation of a digestion product was evident, then a spectral analysis was used to determine the mass of the digestion product, and predict its possible identity.

The subject of another data set is mice. Kind of data set: murine gastrointestinal transit (GIT) assay, acute dosing. In kind it is in vivo, mouse. Conditions: for gastrointestinal transit rate: oral, SEQ ID NO:4 0.1 mg/kg, Zelnorm 0.1 mg/kg, FIG. 3a, 3b; for intestinal transit rate versus dosage: recombinantly synthesized peptides, FIG. 4a. The method, then:
In order to determine whether the peptides increase the rate of gastrointestinal transit, the peptides and controls were tested using a murine gastrointestinal transit (GIT) assay (Moon et al. Infection and Immunity 25:127, 1979). In this assay, charcoal, which can be readily visualized in the gastrointestinal tract is administered to mice after the administration of a test compound. The distance traveled by the charcoal is measured and expressed as a percentage of the total length of the […].
Mice were fasted with free access to water for 12 to 16 hours before the treatment with peptide or control buffer. The peptides were orally administered at 1 μg/kg-1 mg/kg of peptide in buffer (20 mM Tris pH 7.5) 7 minutes before being given an oral dose of 5% Activated Carbon (Aldrich 242276-250G). Control mice were administered buffer only before being given a dose of Activated Carbon. After 15 minutes, the mice were sacrificed and their intestines from the stomach to the cecum were dissected. The total length of the intestine as well as the distance traveled from the stomach to the charcoal front was measured for each animal and the results are expressed as the percent of the total length of the intestine traveled by the charcoal front. All results are reported as the average of 10 mice±standard deviation. A comparison of the distance traveled by the charcoal between the mice treated with peptide versus the mice treated with vehicle alone was performed using a Student's t test and a statistically significant difference was considered for P<0.05. P-values are calculated using a two-sided T-Test assuming unequal variances.

In the next data set the test system is CD1 female mice. Description: murine gastrointestinal transit assay, chronic dosing. In kind it is in vivo, mouse. To be noted: oral, daily for 5 days; SEQ ID NO:3 0.06 or 0.25 mg/kg; FIG. 4c. The method, then: The identical experiment was performed to determine if SEQ ID NO:3 is effective in a chronic dosing treatment regimen. Briefly, 8 week old CD1 female mice are dosed orally once a day for 5 days with either SEQ ID NO:3 (0.06 mg/kg or 0.25 mg/kg in 20 mM Tris pH 7.5) or vehicle alone (20 mM Tris pH 7.5). On the 5th day, a GIT assay is performed identical to that above except 200 μl of a 10% charcoal solution is administered. […] The results are shown side by side with acute dosing (1 day).

For a further data set, the system named is suckling mice. Description: suckling mouse model of intestinal secretion (SuMi assay). In kind it is in vivo. The method, then: In this model a test compound is administered to suckling mice that are between 7 and 9 days old. After the mice are sacrificed, the gastrointestinal tract from the stomach to the cecum is dissected (“guts”). The remains (“carcass”) as well as the guts are weighed and the ratio of guts to carcass weight is calculated. If the ratio is above 0.09, one can conclude that the test compound increases intestinal secretion. […] The effect of Zelnorm® was also studied.

A further data set deals with T2, intestinal GC-C receptor (Homo sapiens, UniProt P25092).
T2 construct: monolayers of T84 cells in 24-well plates; host or cells: T84 human colon carcinoma cells
Description: intestinal GC-C receptor activity assay (cyclic GMP EIA) in T84 cells. In kind it is cell-based. Conditions: chemically synthesized peptides, FIGS. 2a and 2b. As to the method: The ability of SEQ ID NO:5, SEQ ID NO:4, SEQ ID NO:3, and SEQ ID NO:6 to activate the intestinal GC-C receptor was assessed in an assay employing the T84 human colon carcinoma cell line (American Type Culture Collection (Bethesda, Md.)). For the assays cells were grown to confluency in 24-well culture plates with a 1:1 mixture of Ham's F12 medium and Dulbecco's modified Eagle's medium (DMEM), supplemented with 5% fetal calf serum and were used at between passages 54 and 60.
Briefly, monolayers of T84 cells in 24-well plates were washed twice with 1 ml/well DMEM, then incubated at 37° C. for 10 min with 0.45 ml DMEM containing 1 mM isobutylmethylxanthine (IBMX), a cyclic nucleotide phosphodiesterase inhibitor. Test peptides (50 μl) were then added and incubated for 30 minutes at 37° C. The media was aspirated and the reaction was then terminated by the addition of ice cold 0.5 ml of 0.1N HCl. The samples were held on ice for 20 minutes and then evaporated to dryness using a heat gun or vacuum centrifugation.

The target in data set [2] is T3, GC-C receptors found in rat intestinal mucosa (Rattus norvegicus, UniProt P23897).
T3 construct: Epithelial cells from the small intestine of rats were obtained; from tissue; host or cells: rat small intestine mucosa / epithelial cell suspension
Conditions: same assay, observed by Giannella et al.; cited from earlier work.

In another data set the test system is mouse. Description: phenylbenzoquinone (PBQ)-induced writhing model. To be noted: oral; SEQ ID NO:5 1 mg/kg, SEQ ID NO:3 2.5 mg/kg; versus vehicle control, FIGS. 8a, 8b. A general note: An intraperitoneal irritant provokes the stretching counted in writhing tests.
[3] abbreviates: recombinant peptides, dose response, FIG. 6a.

T2 sequence (P25092 24-1073): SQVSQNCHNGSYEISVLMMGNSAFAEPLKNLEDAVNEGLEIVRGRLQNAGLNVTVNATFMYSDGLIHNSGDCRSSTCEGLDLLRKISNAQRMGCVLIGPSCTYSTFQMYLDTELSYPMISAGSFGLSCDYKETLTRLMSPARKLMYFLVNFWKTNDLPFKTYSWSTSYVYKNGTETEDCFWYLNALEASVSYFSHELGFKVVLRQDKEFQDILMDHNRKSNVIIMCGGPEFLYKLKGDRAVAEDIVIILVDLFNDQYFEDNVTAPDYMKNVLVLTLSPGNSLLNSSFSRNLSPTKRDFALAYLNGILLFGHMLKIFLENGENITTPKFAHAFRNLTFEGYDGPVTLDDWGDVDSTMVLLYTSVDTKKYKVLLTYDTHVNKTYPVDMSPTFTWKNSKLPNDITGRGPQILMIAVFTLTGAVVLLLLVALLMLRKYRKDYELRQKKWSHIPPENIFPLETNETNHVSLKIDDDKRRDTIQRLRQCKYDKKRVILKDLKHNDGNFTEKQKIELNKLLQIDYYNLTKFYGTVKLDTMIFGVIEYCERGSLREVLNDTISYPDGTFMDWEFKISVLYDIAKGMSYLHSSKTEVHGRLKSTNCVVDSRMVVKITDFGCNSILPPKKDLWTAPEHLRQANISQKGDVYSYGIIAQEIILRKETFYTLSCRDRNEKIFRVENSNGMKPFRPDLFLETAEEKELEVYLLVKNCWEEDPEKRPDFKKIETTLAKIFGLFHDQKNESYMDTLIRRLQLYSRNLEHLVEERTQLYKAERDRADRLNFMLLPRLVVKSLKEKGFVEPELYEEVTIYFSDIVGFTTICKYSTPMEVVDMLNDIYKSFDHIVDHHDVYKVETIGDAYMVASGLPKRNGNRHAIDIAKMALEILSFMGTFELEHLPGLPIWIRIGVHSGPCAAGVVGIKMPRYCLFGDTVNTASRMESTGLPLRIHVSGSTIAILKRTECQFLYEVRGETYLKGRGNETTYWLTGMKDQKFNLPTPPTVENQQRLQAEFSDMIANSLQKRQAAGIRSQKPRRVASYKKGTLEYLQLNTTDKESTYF
T3 sequence (P23897 23-1072): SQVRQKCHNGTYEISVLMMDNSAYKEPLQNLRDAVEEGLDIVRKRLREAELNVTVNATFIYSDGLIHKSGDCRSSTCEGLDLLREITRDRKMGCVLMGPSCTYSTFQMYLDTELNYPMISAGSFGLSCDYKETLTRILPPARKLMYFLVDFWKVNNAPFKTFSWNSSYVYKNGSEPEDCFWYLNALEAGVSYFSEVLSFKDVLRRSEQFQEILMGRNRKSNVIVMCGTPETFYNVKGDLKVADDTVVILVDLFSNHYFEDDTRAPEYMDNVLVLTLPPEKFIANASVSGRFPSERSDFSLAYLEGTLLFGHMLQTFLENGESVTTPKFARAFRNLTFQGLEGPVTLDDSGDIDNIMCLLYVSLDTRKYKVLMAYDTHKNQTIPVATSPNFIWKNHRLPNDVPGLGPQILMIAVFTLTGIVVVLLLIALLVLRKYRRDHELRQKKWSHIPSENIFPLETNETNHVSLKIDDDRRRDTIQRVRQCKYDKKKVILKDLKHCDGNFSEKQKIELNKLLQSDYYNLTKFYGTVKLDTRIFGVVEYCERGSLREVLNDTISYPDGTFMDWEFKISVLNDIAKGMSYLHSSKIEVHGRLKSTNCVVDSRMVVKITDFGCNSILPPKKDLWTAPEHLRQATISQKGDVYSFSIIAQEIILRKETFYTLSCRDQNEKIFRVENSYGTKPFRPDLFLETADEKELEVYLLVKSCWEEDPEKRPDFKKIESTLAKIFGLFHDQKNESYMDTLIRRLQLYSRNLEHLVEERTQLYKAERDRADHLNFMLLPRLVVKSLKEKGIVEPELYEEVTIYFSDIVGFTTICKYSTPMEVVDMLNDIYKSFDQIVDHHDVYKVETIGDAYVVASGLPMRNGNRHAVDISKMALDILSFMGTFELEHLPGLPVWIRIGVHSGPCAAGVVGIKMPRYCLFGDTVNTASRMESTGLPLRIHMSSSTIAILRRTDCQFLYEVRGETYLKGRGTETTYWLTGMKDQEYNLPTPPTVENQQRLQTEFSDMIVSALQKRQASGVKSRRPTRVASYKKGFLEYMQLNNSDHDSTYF

For the compound `C[C@@H]1NC(=O)[C@@H]2CCCN2C(=O)[C@H](CC(N)=O)NC(=O)[C@@H]2CSSC[C@H](N)C(=O)N[C@H]3CSSC[C@H](NC1=O)C(=O)N[C@@H]([C@@H](C)O)C(=O)NCC(=O)N[C@H](C(=O)O)CSSC[C@H](NC(=O)[C@H](Cc1ccc(O)cc1)NC(=O)[C@H](CCC(=O)O)NC3=O)C(=O)N2` [SEQ ID NO:6] (H-CCEYCCNPACTGC-OH; disulfide 1-6, 2-10, 5-13), the “AUC, intravenous dose (AUCi.v.,(0-6h))” value in data set [1] (10 mg/kg IV) is 1,590,000 nM-min. The “AUC, oral dose (AUCp.o.,(0-6h))” value in data set [1] (10 mg/kg oral) is less than 1308 nM-min. Besides, the average concentration on carboxypeptidase A (carboxypeptidase A digestion of SEQ ID NO:3, T0) is 108 (+/−2) nM; on carboxypeptidase A (carboxypeptidase A digestion of SEQ ID NO:3, T240 (240 min)), 726 (+/−138) nM.
In the case of `[H]/N=C(/NCCCCC)N/N=C/c1c[nH]c2ccc(OC)cc12` [Zelnorm®, tegaserod, reference compound], in the data set on mice, the gastrointestinal transit rate result is on record as “increase gastrointestinal transit rate”. Further, the “gastrointestinal motility upon chronic dosing” value in the data set on CD1 female mice is “effective”. For the same compound, the “intestinal secretion (ratio of guts to carcass weight)” value with suckling mice (0.2 mg/kg) is “does not increase intestinal secretion”.
One may read the Kd as the equilibrium constant for the complex coming apart. Take NSSNYCCELCCNPACTGCY [SEQ ID NO:4]: the “activity in GC-C receptor activity assay” value on intestinal GC-C receptor is reported as “activity comparable to SEQ ID NO:4”. For the same compound, the “intestinal transit rates versus Tris buffer and Zelnorm” value in the data set on mice (chemically synthesized peptides, FIG. 4b) is given as “increase intestinal transit rates more than either Tris buffer alone or an equivalent dose of Zelnorm®”. In the data set with mice, the gastrointestinal transit rate entry is “increase gastrointestinal transit rate” and the “intestinal transit rate versus dosage” value is recorded as “increases with an increasing dosage”. Also, in the data set with suckling mice (dose response, FIG. 5a, 5b), the “intestinal secretion (ratio of guts to carcass weight)” value is given as “increase intestinal secretion”. Also, the “intestinal secretion (ratio of guts to carcass weight)” value with suckling mice (setting [3]) is recorded as “increase intestinal secretion”. Further, in data set [2], the Kd was roughly 13 nM.
In the case of “NSSNYCCEYCCNPACTGCY (cysteine pairing not given here) [SEQ ID NO:5]”, the “intestinal transit rate versus dosage” value with mice was “increases with an increasing dosage”. Moreover, the “intestinal secretion (ratio of guts to carcass weight)” value in the data set on suckling mice (setting [3]) was “increase intestinal secretion”. Besides, the writhings entry with mouse is “Significant reductions in writhings”.
